Results taken from ChEMBL document CHEMBL5260831, “Recent advance in oxazole-based medicinal chemistry” (Eur J Med Chem, 2018).
In brackets after ≈: the same amount, converted by molar mass.

Tests used:
[1] = test system: Mycolicibacterium smegmatis; assay: Antibacterial activity against Mycobacterium smegmatis mc2155ATCC-700084 assessed as bacterial growth inhibition measured after 18 hrs by microplate reader based analysis; type: functional
HepG2 [2] = assay: Antiproliferative activity in human HepG2 cells assessed as cell growth inhibition measured after 72 hrs by MTT assay; type: functional, cell-based; conditions: HepG2, 72 h
A549 [3] = assay: Antiproliferative activity in human A549 cells assessed as cell growth inhibition measured after 72 hrs by MTT assay; type: functional, cell-based; conditions: A549, 72 h
[4] = target: Protein kinase C beta type (Homo sapiens, UniProt P05771); assay: Inhibition of PKCB (unknown origin)
Protein kinase C beta type, sequence (P05771 whole entry): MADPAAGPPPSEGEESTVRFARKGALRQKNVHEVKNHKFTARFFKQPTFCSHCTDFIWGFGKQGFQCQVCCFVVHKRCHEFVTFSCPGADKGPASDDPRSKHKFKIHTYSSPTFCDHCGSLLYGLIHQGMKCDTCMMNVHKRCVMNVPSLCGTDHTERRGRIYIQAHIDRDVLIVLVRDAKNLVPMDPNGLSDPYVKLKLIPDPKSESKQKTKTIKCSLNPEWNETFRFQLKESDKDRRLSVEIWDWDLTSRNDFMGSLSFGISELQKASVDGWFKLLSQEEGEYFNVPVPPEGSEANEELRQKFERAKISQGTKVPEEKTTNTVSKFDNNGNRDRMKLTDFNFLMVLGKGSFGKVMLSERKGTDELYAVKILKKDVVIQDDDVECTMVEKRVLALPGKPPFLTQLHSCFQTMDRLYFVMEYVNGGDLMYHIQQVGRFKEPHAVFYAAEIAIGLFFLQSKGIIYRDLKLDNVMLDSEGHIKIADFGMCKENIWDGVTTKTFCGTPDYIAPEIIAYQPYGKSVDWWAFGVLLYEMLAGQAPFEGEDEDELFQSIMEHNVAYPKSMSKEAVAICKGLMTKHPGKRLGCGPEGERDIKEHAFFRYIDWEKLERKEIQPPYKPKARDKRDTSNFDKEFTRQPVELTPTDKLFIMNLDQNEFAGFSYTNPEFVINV

Staphylococcus aureus [5] = assay: Antibiofilm activity against methicillin-sensitive Staphylococcus aureus ATCC 35556 assessed as inhibition of biofilm formation; type: functional
Leishmania major = assay: Leishmanicidal activity against Leishmania major JISH118 promastigote infected in human THP-1 macrophage cells assessed as reduction in […]; type: functional, organism-based; conditions: JISH118, THP-1
A549 [6] = assay: Antiproliferative activity in human A549 cells assessed as cell growth inhibition measured after 48 hrs by MTT assay; type: functional, cell-based; conditions: A549, 48 h
MCF7 [7] = assay: Antiproliferative activity in human MCF7 cells assessed as cell growth inhibition measured after 48 hrs by MTT assay; type: functional, cell-based; conditions: MCF7, 48 h
MCF7 [8] = assay: Antiproliferative activity in human MCF7 cells assessed as cell growth inhibition; type: functional, cell-based
HeLa = assay: Antiproliferative activity in human HeLa cells assessed as cell growth inhibition; type: functional, cell-based
A549 [9] = assay: Antiproliferative activity in human A549 cells assessed as cell growth inhibition; type: functional, cell-based
Rattus norvegicus [10] = assay: Anti-inflammatory activity against Carrageenan-induced paw edema in albino rat ulcerogenic activity at 20 mg/kg, po relative to control; type: functional
Alpha-glucosidase [11] = target: T1, Alpha-glucosidase (Saccharomyces cerevisiae S288c, UniProt P53341+P38158+P07265); assay: Inhibition of yeast alpha-glucosidase using p-nitrophenyl-alpha-D-glucopyranoside as substrate; type: protein assay
Alpha-glucosidase [12] = target: T1, Alpha-glucosidase; assay: Inhibition of yeast alpha-glucosidase using p-nitrophenyl-alpha-D-glucopyranoside as substrate by absorbance based analysis; type: protein assay
Staphylococcus aureus [13] = assay: Antibacterial activity against Staphylococcus aureus assessed as bacterial growth inhibition by disc diffusion assay; type: functional
Escherichia coli = assay: Antibacterial activity against Escherichia coli assessed as bacterial growth inhibition by microdilution assay; type: functional
P388 = assay: Antiproliferative activity gainst mouse P388 cells assessed as cell growth inhibition; type: functional, cell-based
Rattus norvegicus [14] = assay: Anti-inflammatory activity against Carrageenan-induced paw edema in Wistar albino rat ulcerogenic activity relative to control; type: functional
[15] = test system: Mycobacterium tuberculosis; assay: Antimycobacterial activity against Mycobacterium tuberculosis H37Rv ATCC27294 assessed as inhibition of bacterial growth by agar dilution assay; type: functional
A549 [16] = assay: Antiproliferative activity in human A549 cells assessed as cell growth inhibition measured after 72 hrs by SRB assay; type: functional, cell-based; conditions: A549, 72 h
SK-HEP1 = assay: Antiproliferative activity in human SK-HEP1 cells assessed as cell growth inhibition measured after 72 hrs by SRB assay; type: functional, cell-based; conditions: SK-HEP1, 72 h
A549 [17] = assay: Antiproliferative activity in paclitaxel-resistant human A549 cells assessed as cell growth inhibition measured after 72 hrs by SRB assay; type: functional, cell-based; conditions: A549, 72 h
[18] = Antiproliferative activity in human SNU-601 cells assessed as cell growth inhibition measured after 72 hrs by SRB assay; type: functional, cell-based; conditions: SNU-601, 72 h
MDA-MB-231 = assay: Antiproliferative activity in human MDA-MB-231 cells assessed as cell growth inhibition measured after 72 hrs by SRB assay; type: functional, cell-based; conditions: MDA-MB-231, 72 h
HCT-116 = assay: Antiproliferative activity in human HCT-116 cells assessed as cell growth inhibition measured after 72 hrs by SRB assay; type: functional, cell-based; conditions: HCT-116, 72 h
Bacillus cereus = assay: Antibacterial activity against Bacillus cereus MTCC 430 assessed as microbial growth inhibition measured after 24 hrs by paper disc diffusion technique; type: functional
Pseudomonas aeruginosa = assay: Antibacterial activity against Pseudomonas aeruginosa MTCC 741 assessed as microbial growth inhibition measured after 24 hrs by paper disc diffusion technique; type: functional
HepG2 [19] = assay: Antiproliferative activity in human HepG2 cells assessed as cell growth inhibition; type: functional, cell-based
[20] = target: Cannabinoid receptor 1 (Homo sapiens) (UniProt P21554); assay: Binding affinity to CB1 receptor (unknown origin); conditions: filed as agonist
Cannabinoid receptor 1 (Homo sapiens), sequence (P21554 whole entry): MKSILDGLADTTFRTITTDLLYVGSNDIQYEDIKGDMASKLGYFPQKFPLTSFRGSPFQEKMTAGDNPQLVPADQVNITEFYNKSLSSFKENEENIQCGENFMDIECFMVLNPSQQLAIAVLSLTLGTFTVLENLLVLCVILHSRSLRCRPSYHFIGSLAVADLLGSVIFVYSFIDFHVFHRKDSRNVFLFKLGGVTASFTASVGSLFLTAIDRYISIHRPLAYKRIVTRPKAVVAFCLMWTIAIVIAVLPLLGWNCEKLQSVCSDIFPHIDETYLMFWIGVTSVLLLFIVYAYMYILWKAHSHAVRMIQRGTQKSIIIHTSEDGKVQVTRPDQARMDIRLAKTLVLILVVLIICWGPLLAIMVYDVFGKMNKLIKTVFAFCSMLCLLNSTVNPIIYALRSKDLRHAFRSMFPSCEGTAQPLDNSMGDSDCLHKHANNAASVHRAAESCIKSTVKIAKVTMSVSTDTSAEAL

Rattus norvegicus [21] = assay: Anti-inflammatory activity against Carrageenan-induced paw edema in rat ulcerogenic activity relative to control; type: functional

## C/C=C(C)/C=C(\C)[C@@H](O)[C@H](C)[C@@H](O)[C@@H]1OC(=O)/C(CCCCCC)=C/c2coc(n2)[C@H](C)[C@@H](O)C[C@H](O)/C=C/C=C\C[C@@H]1O
[1]
  MIC: 64 µg/mL (≈ 104 µM)

## Brc1ccccc1-c1nc(-c2ccccc2)co1
HepG2 [2]
  IC50: 16.9 µM

## CO[C@@H]1[C@H](N(C)c2ncc(-c3c[nH]c4ccccc34)o2)C[C@H]2C[C@]1(C)n1c3ccccc3c3c4c(c5c6ccccc6n2c5c31)C(=O)NC4
A549 [3]
  IC50: 450 nM
[4]
  IC50: 500 nM

## Cn1c(-c2nnc(-c3ccc(Cl)cc3Cl)o2)cc(Br)c1Br
Staphylococcus aureus [5]
  MBIC: 0.39 µg/mL

## O=C(NNC(=S)c1ccc(C(F)(F)F)cc1)c1ccc(-c2nnc(-c3ccc4ncccc4c3)o2)cc1
Leishmania major
  IC50: 100 nM

## CC1=NN(c2ccccc2)C(=O)/C1=N/Nc1cccc(-c2nc3ccccc3o2)c1
A549 [6]
  IC50: 15.5 µM
MCF7 [7]
  IC50: 17 µM

## Cc1ncc(-c2ccc3ccccc3c2)o1
MCF7 [8]
  IC50: 4.6 µM
HeLa
  IC50: 4.6 µM
A549 [9]
  IC50: 4.6 µM

## O=C(CCN1CCN(c2ccc([N+](=O)[O-])cc2)CC1)Nc1ccc2oc(Cc3ccc(Cl)cc3)nc2c1
Rattus norvegicus [10]
  inhibition in vivo at 20 mg/kg: 81.7%

## O=[N+]([O-])c1ccc2cc(-c3nnc(-c4ccccc4F)o3)oc2c1
Alpha-glucosidase [11]
  IC50: 2 µM
Alpha-glucosidase [12]
  IC50: 12.75 µM

## C/C=C(C)/C=C(\C)[C@@H](O)[C@H](C)[C@@H](O)[C@H](O)[C@@H]1C/C=C\C=C\[C@@H](O)C[C@H](O)[C@@H](C)c2nc(cs2)/C=C(\CCCCCC)C(=O)O1
[1]
  MIC: 16 µg/mL (≈ 25.3 µM)

## CN[C@H](CC(C)C)C(=O)N[C@H]1C(=O)N[C@@H](CC(N)=O)C(=O)N[C@H]2C(=O)N[C@H]3C(=O)N[C@H](C(=O)N[C@H](C(=O)O)c4cc(O)cc(O)c4-c4cc3ccc4O)[C@H](O)c3ccc(c(Cl)c3)Oc3cc2cc(c3O[C@@H]2O[C@H](CO)[C@@H](O)[C@H](O)[C@H]2O[C@H]2C[C@](C)(N)[C@H](O)[C@H](C)O2)Oc2ccc(cc2Cl)[C@H]1O [VANCOMYCIN]
Staphylococcus aureus [5]
  MBIC: 3.125 µg/mL

## Cc1ncc(-c2cnc3ccccc3c2)o1
MCF7 [8]
  IC50: 4.6 µM
HeLa
  IC50: 4.6 µM
A549 [9]
  IC50: 4.6 µM

## COc1ccc(-c2nnc(SCCSc3nnc(-c4c[nH]c5ccccc45)n3N)o2)cc1
Staphylococcus aureus [13]
  MIC: 2 µg/mL (≈ 4.3 µM)
Escherichia coli
  MIC: 2 µg/mL

## C/C=C(C)\C=C(/C)[C@@H](O)[C@H](C)[C@@H](O)[C@@H]1OC(=O)/C(CCCCCC)=C/c2coc(n2)[C@H](C)[C@@H](O)C[C@H](O)/C=C/C=C\C[C@@H]1O
[1]
  MIC: 64 µg/mL (≈ 104 µM)

## O=[N+]([O-])c1ccc2cc(-c3nnc(-c4ccc(O)cc4O)o3)oc2c1
Alpha-glucosidase [11]
  IC50: 2 µM
Alpha-glucosidase [12]
  IC50: 12.75 µM

## CCC[C@@H]1NC(=O)C2C[C@H](C)CN2C(=O)[C@@H](NC=O)CNC(=O)[C@H](CSSC[C@@H]2NC(=O)c3coc(n3)[C@H](C)NC(=O)C(=O)[C@H](CCC)NC(=O)C3C[C@H](C)CN3C(=O)[C@@H](NC=O)CNC2=O)NC(=O)c2coc(n2)[C@H](C)NC(=O)C1=O (stereo partly specified)
P388
  IC50: 830 nM

## Clc1ccccc1-c1nnc(Cn2c(CN3CCOCC3)nc3ccccc32)o1
Rattus norvegicus [14]
  inhibition (INH): 74.17%

## Nc1ccc(-c2nnc(SCCSc3nnc(-c4c[nH]c5ccccc45)n3N)o2)cc1
Staphylococcus aureus [13]
  MIC: 2 µg/mL (≈ 4.44 µM)
Escherichia coli
  MIC: 2 µg/mL

## COc1ccc(-c2cc(-c3nnc(C)o3)nn2-c2ccc(NC(=O)c3ccc(F)cc3)cc2)cc1
[15]
  MIC: > 50 µg/mL

## COC(CC1OC(=O)CC(O)C/C=C/C(=O)C(C)C(OC)c2coc(n2)-c2coc(n2)-c2coc(n2)/C=C\CCC1C)C(C)CCC(=O)C(C)C(C/C=C/N(C)C=O)OC (stereo unspecified)
A549 [16]
  IC50: 24 nM
SK-HEP1
  IC50: 80 nM
A549 [17]
  IC50: 22 nM
[18]
  IC50: 107 nM
MDA-MB-231
  IC50: 40 nM
HCT-116
  IC50: 73 nM

## O=c1cc(Nc2ccc(-c3cc(-c4ccc(Cl)cc4Cl)on3)cc2)c2ccccc2o1
Bacillus cereus
  MIC: 12.5 µg/mL (≈ 27.8 µM)
Pseudomonas aeruginosa
  MIC: 12.5 µg/mL (≈ 27.8 µM)

## COc1ccc(-c2cc(-c3nnc(C)o3)nn2-c2ccc(NC(=O)c3ccccc3)cc2)cc1
[15]
  MIC: > 50 µg/mL

## CC(=O)Oc1ccccc1C1OC(c2ccncc2)=NN1C(C)=O (stereo unspecified)
MCF7 [8]
  IC50: 50 µM
HepG2 [19]
  IC50: 50 µM

## CC(=O)Oc1ccc(-c2nc(-c3ccccc3)co2)cc1
HepG2 [2]
  IC50: 16.6 µM

## O=[N+]([O-])c1ccc2cc(-c3nnc(-c4cccc(O)c4O)o3)oc2c1
Alpha-glucosidase [11]
  IC50: 2 µM
Alpha-glucosidase [12]
  IC50: 12.75 µM

## Cc1ncc(-c2cccnc2)o1
MCF7 [8]
  IC50: 4.6 µM
HeLa
  IC50: 4.6 µM
A549 [9]
  IC50: 4.6 µM

## c1ccc(Cc2noc(-c3cn(CCN4CCCC4)c4ccccc34)n2)cc1
[20]
  pKb: 7.2

## CO[C@@H]1[C@H](N(C)c2ncc(-c3ccccc3)o2)C[C@H]2C[C@]1(C)n1c3ccccc3c3c4c(c5c6ccccc6n2c5c31)C(=O)NC4
A549 [3]
  IC50: 750 nM
[4]
  IC50: 500 nM

## Cn1c(-c2nnc(-c3cc(Br)c(Br)[nH]3)o2)cc(Br)c1Br
Staphylococcus aureus [5]
  MBIC: 0.78 µg/mL

## COc1ccc(-c2nnc(-c3cc(Br)c(Br)n3C)o2)cc1
Staphylococcus aureus [5]
  MBIC: 0.78 µg/mL

## COc1cc(-c2nnc(SCC(=O)Nc3ccc(/C(C)=N/O)cc3)o2)cc(OC)c1OC
Rattus norvegicus [21]
  inhibition (INH): 96.67%

## Cn1c(-c2nnc(-c3ccc(Cl)cc3)o2)cc(Br)c1Br
Staphylococcus aureus [5]
  MBIC: 0.78 µg/mL

## O=[N+]([O-])c1ccccc1-c1nc(-c2ccccc2)co1
HepG2 [2]
  IC50: 56.5 µM

## Cc1nnc(-c2cc(-c3ccc(Cl)cc3)n(-c3ccc(NC(=O)c4ccccc4)cc3)n2)o1
[15]
  MIC: 3.13 µg/mL (≈ 6.87 µM)

## Cc1nnc(-c2cc(-c3ccc(Cl)cc3)n(-c3ccc(NC(=O)c4ccccc4Cl)cc3)n2)o1
[15]
  MIC: 1.56 µg/mL (≈ 3.18 µM)
